# Test results published in PubChem BioAssay AID248 (DTP/NCI, 2004).
# Where “and” joins values, the source holds several entries; their conditions need not be identical. Equal entries are not always repeated. Toxic doses and inconclusive results are not listed.
# Test system: L1210 leukemia ip in BDF1 mice, survival T/C
# Test: NCI In Vivo Anticancer Drug Screen. Data for tumor model L1210 Leukemia (intraperitoneal) in B6D2F1 (BDF1) mice
# Details: endpoint: mean survival time, higher = longer survival
# Procedure, shortened: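 Tumor was transplanted into mice, which were then dosed with test compound or vehicle alone. Survival was recorded for each group, and the treated figure was expressed relative to the control figure.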
# [1] = dose: 100.0 mg/kg/injection, schedule: Q04DX003 (ip), vehicle: saline with Tween-80
# [2] = dose: 12.5 mg/kg/injection, schedule: Q04DX003 (ip), vehicle: saline
# [3] = dose: 100.0 mg/kg/injection, schedule: Q01DX009 (ip), vehicle: saline with Tween-80
structure (smiles),measurement,setting,value
ClC(Cl)[P+](N1CCCCC1)(N1CCCCC1)N1CCCCC1,T/C,"dose: 0.75 mg/kg/injection, schedule: Q04DX003 (ip), vehicle: Klucel (hydroxypropylcellulose) (HPC)",115 % of control
same,T/C,"dose: 1.5 mg/kg/injection, schedule: Q04DX003 (ip), vehicle: Klucel (hydroxypropylcellulose) (HPC)",118 % of control
same,T/C,"dose: 3.0 mg/kg/injection, schedule: Q04DX003 (ip), vehicle: Klucel (hydroxypropylcellulose) (HPC)",93 % of control and 118 % of control
O=C(Nc1cc([N+](=O)[O-])ccc1O)c1ccc(Cl)c(Cl)c1,T/C,"dose: 100.0 mg/kg/injection, schedule: Q01DX009 (ip), vehicle: Klucel (hydroxypropylcellulose) (HPC)",104 % of control
same,T/C,"dose: 200.0 mg/kg/injection, schedule: Q01DX009 (ip), vehicle: Klucel (hydroxypropylcellulose) (HPC)",95 % of control
same,T/C,"dose: 400.0 mg/kg/injection, schedule: Q01DX009 (ip), vehicle: Klucel (hydroxypropylcellulose) (HPC)",93 % of control
COc1cccc(C(=O)c2ccccc2NC(C)=O)c1,T/C,[1],93 % of control
same,T/C,"dose: 200.0 mg/kg/injection, schedule: Q04DX003 (ip), vehicle: saline with Tween-80",94 % of control
same,T/C,"dose: 400.0 mg/kg/injection, schedule: Q04DX003 (ip), vehicle: saline with Tween-80",93 % of control
CCOC(=O)C(Cl)c1ccc(OC)cc1 (centres undefined),T/C,"dose: 100.0 mg/kg/injection, schedule: Q01DX009 (ip), vehicle: other",111 % of control
same,T/C,"dose: 200.0 mg/kg/injection, schedule: Q01DX009 (ip), vehicle: other",98 % of control
same,T/C,"dose: 400.0 mg/kg/injection, schedule: Q01DX009 (ip), vehicle: other",102 % of control
CCCCCN(CCCCC)CCC(=O)c1ccc2cc(Br)c3ccccc3c2c1,T/C,"dose: 13.3 mg/kg/injection, schedule: Q01DX Z (ip), vehicle: methylcellulose (MC)",91 % of control
same,T/C,"dose: 20.0 mg/kg/injection, schedule: Q01DX Z (ip), vehicle: methylcellulose (MC)",92 % of control
same,T/C,"dose: 30.0 mg/kg/injection, schedule: Q01DX Z (ip), vehicle: methylcellulose (MC)",92 % of control
O=C(CC(CC(=O)c1ccccc1)c1ccncc1)c1ccccc1,T/C,"dose: 50.0 mg/kg/injection, schedule: Q01DX001 (ip), vehicle: carboxymethylcellulose (CMC)",95 % of control
same,T/C,"dose: 200.0 mg/kg/injection, schedule: Q01DX001 (ip), vehicle: carboxymethylcellulose (CMC)",90 % of control
same,T/C,"dose: 400.0 mg/kg/injection, schedule: Q01DX001 (ip), vehicle: carboxymethylcellulose (CMC)",86 % of control
CN(C)C=Nc1ccc(Cl)c2ccccc12,T/C,"dose: 100.0 mg/kg/injection, schedule: Q01DX001 (ip), vehicle: Klucel (hydroxypropylcellulose) (HPC)",99 % of control
same,T/C,"dose: 100.0 mg/kg/injection, schedule: Q04DX003 (ip), vehicle: Klucel (hydroxypropylcellulose) (HPC)",98 % of control
same,T/C,"dose: 200.0 mg/kg/injection, schedule: Q01DX001 (ip), vehicle: Klucel (hydroxypropylcellulose) (HPC)",96 % of control
same,T/C,"dose: 200.0 mg/kg/injection, schedule: Q04DX003 (ip), vehicle: Klucel (hydroxypropylcellulose) (HPC)",101 % of control
same,T/C,"dose: 400.0 mg/kg/injection, schedule: Q01DX001 (ip), vehicle: Klucel (hydroxypropylcellulose) (HPC)",97 % of control
O=S1(=O)CC23CCC2(COC3)C1 (centres undefined),T/C,[2],97 % of control
same,T/C,"dose: 25.0 mg/kg/injection, schedule: Q04DX003 (ip), vehicle: saline",94 % of control
same,T/C,"dose: 50.0 mg/kg/injection, schedule: Q04DX003 (ip), vehicle: saline",92 % of control
COc1cc(N)c([N+](=O)[O-])c(OC)c1,T/C,"dose: 25.0 mg/kg/injection, schedule: Q01DX009 (ip), vehicle: saline with Tween-80",98 % of control
same,T/C,"dose: 50.0 mg/kg/injection, schedule: Q01DX009 (ip), vehicle: saline with Tween-80",104 % of control
same,T/C,[3],100 % of control
same,T/C,[1],106 % of control
Nc1ccccc1SC1CC(=O)N(c2ccccc2Cl)C1=O (centres undefined),T/C,[3],98 % of control
same,T/C,"dose: 200.0 mg/kg/injection, schedule: Q01DX009 (ip), vehicle: saline with Tween-80",95 % of control
same,T/C,"dose: 400.0 mg/kg/injection, schedule: Q01DX009 (ip), vehicle: saline with Tween-80",97 % of control
CCOC(=O)Nc1cc(NC(c2ccccc2)c2ccccc2)c2[nH]cnc2n1,T/C,"dose: 4.0 mg/kg/injection, schedule: Q01DX009 (ip), vehicle: other",92 % of control
same,T/C,"dose: 5.0 mg/kg/injection, schedule: Q01DX001 (ip), vehicle: other",104 % of control
same,T/C,"dose: 7.0 mg/kg/injection, schedule: Q01DX009 (ip), vehicle: other",93 % of control
same,T/C,"dose: 9.0 mg/kg/injection, schedule: Q01DX009 (ip), vehicle: other",95 % of control
same,T/C,"dose: 9.0 mg/kg/injection, schedule: Q01DX009 (ip), vehicle: steriod suspending solution",97 % of control
same,T/C,"dose: 10.0 mg/kg/injection, schedule: Q01DX001 (ip), vehicle: other",102 % of control
same,T/C,"dose: 12.0 mg/kg/injection, schedule: Q01DX009 (ip), vehicle: other",92 % of control
same,T/C,"dose: 13.0 mg/kg/injection, schedule: Q01DX009 (ip), vehicle: other",95 % of control
same,T/C,"dose: 13.0 mg/kg/injection, schedule: Q01DX009 (ip), vehicle: steriod suspending solution",97 % of control
same,T/C,"dose: 18.0 mg/kg/injection, schedule: Q01DX001 (ip), vehicle: steriod suspending solution",98 % of control
same,T/C,"dose: 20.0 mg/kg/injection, schedule: Q01DX001 (ip), vehicle: other",100 % of control and 106 % of control
same,T/C,"dose: 20.0 mg/kg/injection, schedule: Q01DX009 (ip), vehicle: other",95 % of control and 112 % of control
same,T/C,"dose: 20.0 mg/kg/injection, schedule: Q01DX009 (ip), vehicle: steriod suspending solution",103 % of control
same,T/C,"dose: 26.0 mg/kg/injection, schedule: Q01DX001 (ip), vehicle: steriod suspending solution",100 % of control
same,T/C,"dose: 30.0 mg/kg/injection, schedule: Q01DX001 (ip), vehicle: other",119 % of control
same,T/C,"dose: 30.0 mg/kg/injection, schedule: Q01DX009 (ip), vehicle: other",105 % of control
same,T/C,"dose: 30.0 mg/kg/injection, schedule: Q01DX009 (ip), vehicle: steriod suspending solution",124 % of control
same,T/C,"dose: 40.0 mg/kg/injection, schedule: Q01DX001 (ip), vehicle: other",164 % of control
same,T/C,"dose: 40.0 mg/kg/injection, schedule: Q01DX001 (ip), vehicle: steriod suspending solution",105 % of control
same,T/C,"dose: 50.0 mg/kg/injection, schedule: Q01DX001 (ip), vehicle: other",155 % of control
same,T/C,"dose: 60.0 mg/kg/injection, schedule: Q01DX001 (ip), vehicle: other",119 % of control
same,T/C,"dose: 60.0 mg/kg/injection, schedule: Q01DX001 (ip), vehicle: steriod suspending solution",111 % of control
same,T/C,"dose: 80.0 mg/kg/injection, schedule: Q01DX001 (ip), vehicle: other",107 % of control
same,T/C,"dose: 100.0 mg/kg/injection, schedule: Q01DX001 (ip), vehicle: other",107 % of control
N#CCCCI,T/C,"dose: 50.0 mg/kg/injection, schedule: Q04DX003 (ip), vehicle: acetone",96 % of control
same,T/C,"dose: 100.0 mg/kg/injection, schedule: Q04DX003 (ip), vehicle: acetone",100 % of control
same,T/C,"dose: 200.0 mg/kg/injection, schedule: Q04DX003 (ip), vehicle: acetone",105 % of control
NC(CSCc1ccc([N+](=O)[O-])cc1)C(=O)O (centres undefined),T/C,"dose: 100.0 mg/kg/injection, schedule: Q04DX003 (ip), vehicle: saline",102 % of control
same,T/C,"dose: 200.0 mg/kg/injection, schedule: Q04DX003 (ip), vehicle: saline",105 % of control
same,T/C,"dose: 400.0 mg/kg/injection, schedule: Q04DX003 (ip), vehicle: saline",96 % of control
CN(C)/N=N/c1ncn[nH]1,T/C,"dose: 3.0 mg/kg/injection, schedule: Q01DX009 (ip), vehicle: saline",117 % of control
same,T/C,"dose: 6.0 mg/kg/injection, schedule: Q01DX009 (ip), vehicle: saline",114 % of control
same,T/C,"dose: 12.5 mg/kg/injection, schedule: Q01DX001 (ip), vehicle: saline",104 % of control
same,T/C,"dose: 12.5 mg/kg/injection, schedule: Q01DX009 (ip), vehicle: saline",151 % of control
same,T/C,[2],120 % of control
same,T/C,"dose: 22.0 mg/kg/injection, schedule: Q04DX003 (ip), vehicle: saline",123 % of control
same,T/C,"dose: 25.0 mg/kg/injection, schedule: Q01DX001 (ip), vehicle: saline",108 % of control
same,T/C,"dose: 25.0 mg/kg/injection, schedule: Q01DX009 (ip), vehicle: saline",203 % of control
same,T/C,"dose: 50.0 mg/kg/injection, schedule: Q01DX001 (ip), vehicle: saline",116 % of control
same,T/C,"dose: 50.0 mg/kg/injection, schedule: Q01DX009 (ip), vehicle: saline",115 % of control
same,T/C,"dose: 200.0 mg/kg/injection, schedule: Q01DX001 (ip), vehicle: saline",155 % of control
same,T/C,"dose: 400.0 mg/kg/injection, schedule: Q01DX001 (ip), vehicle: saline",91 % of control
O=C(Nc1ccc(C2=NCCN2)c(O)c1)c1ccc(C(=O)Nc2ccc(C3=NCCN3)c(O)c2)cc1,T/C,"dose: 8.0 mg/kg/injection, schedule: Q01DX Z (ip), vehicle: carboxymethylcellulose (CMC)",103 % of control
same,T/C,"dose: 16.0 mg/kg/injection, schedule: Q01DX Z (ip), vehicle: carboxymethylcellulose (CMC)",88 % of control
same,T/C,"dose: 31.0 mg/kg/injection, schedule: Q01DX Z (ip), vehicle: carboxymethylcellulose (CMC)",88 % of control
same,T/C,"dose: 62.0 mg/kg/injection, schedule: Q01DX Z (ip), vehicle: carboxymethylcellulose (CMC)",90 % of control
